# Active and inactive are the calls of the source. Unless noted, the rule behind the calls is not given here.
# Experiments:
# [1] = target: Luciferin 4-monooxygenase (Photinus pyralis, UniProt P08659); assay: inhibition of purified Photinus pyralis luciferase – biochemical, luminescence, dose response (AID 1891)
# [2] = SFLLRN-induced P-Selectin Platelet Surface Expression Measured in Cell-Based System Using Flow Cytometry - 2016-03_Inhibitor_Dose_DryPowder_Activity_Set3. [Related pubchem assays (depositor defined):AID1678]; format: functional
# [3] = blockers of SFLLRN-triggered platelet ATP secretion – cell-based, human platelets, luminescence, dry powder, dose response (AID 493100); format: functional
# [4] = Luminescence Cell-Based Dose Confirmation HTS to Identify Inhibitors of Platelet Dense Granule Release. [Related pubchem assays: 1663 (Primary HTS), 1678 (Summary of Project)]; format: functional
# [5] = PAR1 agonist-induced platelet activation inhibition – cell-based, fluorescence, flow cytometry, human platelets, dose response (AID 2511); format: functional
# [6] = Luminescence Cell-Based Dose Response Follow up to Identify Inhibitors of Platelet Dense Granule Release. [Related pubchem assays (depositor defined):AID1663, AID1678, AID1889, AID2519]; format: functional
# [7] = tested on: INS1; assay: INS-1E survival protection against cytokine death – cell-based, luminescence, retest, dose response (AID 449756); format: functional; conditions: Rattus norvegicus;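 also: cell death triggered by IL-1 beta plus TNF-alpha plus IFN-gamma mixture; protective hits raise ATP signal compared with cytokine alone wells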
# [8] = target: Heat shock protein HSP 90-alpha (Homo sapiens, UniProt P07900); format: functional, organism-based
# [9] = target: T1, Heat shock factor protein 1 (Mus musculus, UniProt P38532); assay: enhancement of HSF1-driven luciferase signal – cell-based, NIH3T3, luminescence, dose retest, confirmation (AID 435004); format: functional;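 also: stress induced by proteasome inhibitor MG132 added 30 min after compound; luciferase reporter driven by HSF1 response element in NIH3T3 cells; actives raise luminescence as potentiators of the MG132 stress response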
# T1 sequence (P38532 whole entry): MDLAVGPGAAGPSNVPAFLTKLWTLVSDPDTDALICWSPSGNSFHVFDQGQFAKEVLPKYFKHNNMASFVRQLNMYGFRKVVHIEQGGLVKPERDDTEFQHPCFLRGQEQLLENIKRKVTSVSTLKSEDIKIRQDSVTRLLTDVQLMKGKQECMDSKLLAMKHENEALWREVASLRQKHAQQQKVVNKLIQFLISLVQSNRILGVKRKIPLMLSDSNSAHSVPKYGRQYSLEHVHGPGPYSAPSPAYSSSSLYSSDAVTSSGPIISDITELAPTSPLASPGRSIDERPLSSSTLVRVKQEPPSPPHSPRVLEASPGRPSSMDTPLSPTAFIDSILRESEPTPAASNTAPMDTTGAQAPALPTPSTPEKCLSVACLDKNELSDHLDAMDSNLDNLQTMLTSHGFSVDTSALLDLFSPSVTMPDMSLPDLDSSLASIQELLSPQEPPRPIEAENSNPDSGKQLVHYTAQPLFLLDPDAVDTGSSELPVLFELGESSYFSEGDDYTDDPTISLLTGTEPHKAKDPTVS
# [10] = HEK-293T viability loss after treatment – luminescence, T-cell screen hits, cytotoxicity control for TCR NF-kB inhibitor project, dose response (AID 489026); format: functional, cell-based;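 also: cells exposed to compound about 14 hours before the viability readout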
# [11] = target: Dual specificity protein phosphatase 3 (Homo sapiens, UniProt P51452); assay: SAR VHR1 Fluorescent Assay for In Vitro dose response studies Set 3. [Related pubchem assays (depositor defined):AID1654, AID1661, AID1878]; format: functional
# Sequence of Dual specificity protein phosphatase 3 (P51452 whole entry): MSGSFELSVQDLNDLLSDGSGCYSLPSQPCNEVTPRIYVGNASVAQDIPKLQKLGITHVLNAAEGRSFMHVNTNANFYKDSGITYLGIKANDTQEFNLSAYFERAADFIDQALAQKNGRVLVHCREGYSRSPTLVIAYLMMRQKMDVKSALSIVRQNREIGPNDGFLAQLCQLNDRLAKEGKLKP
# [12] = target: Prothrombin (Bos taurus, UniProt P00735); assay: thrombin protease inhibitors – biochemical, fluorescence polarization, uHTS hits, dose response (AID 602369); format: functional
# [13] = target: 72 kDa type IV collagenase (Homo sapiens, UniProt P08253); assay: Dose Response validation of uHTS RPN11 inhibitor hits using a MMP-2 Fluorescence assay.; format: functional
# Sequence of 72 kDa type IV collagenase (P08253 whole entry): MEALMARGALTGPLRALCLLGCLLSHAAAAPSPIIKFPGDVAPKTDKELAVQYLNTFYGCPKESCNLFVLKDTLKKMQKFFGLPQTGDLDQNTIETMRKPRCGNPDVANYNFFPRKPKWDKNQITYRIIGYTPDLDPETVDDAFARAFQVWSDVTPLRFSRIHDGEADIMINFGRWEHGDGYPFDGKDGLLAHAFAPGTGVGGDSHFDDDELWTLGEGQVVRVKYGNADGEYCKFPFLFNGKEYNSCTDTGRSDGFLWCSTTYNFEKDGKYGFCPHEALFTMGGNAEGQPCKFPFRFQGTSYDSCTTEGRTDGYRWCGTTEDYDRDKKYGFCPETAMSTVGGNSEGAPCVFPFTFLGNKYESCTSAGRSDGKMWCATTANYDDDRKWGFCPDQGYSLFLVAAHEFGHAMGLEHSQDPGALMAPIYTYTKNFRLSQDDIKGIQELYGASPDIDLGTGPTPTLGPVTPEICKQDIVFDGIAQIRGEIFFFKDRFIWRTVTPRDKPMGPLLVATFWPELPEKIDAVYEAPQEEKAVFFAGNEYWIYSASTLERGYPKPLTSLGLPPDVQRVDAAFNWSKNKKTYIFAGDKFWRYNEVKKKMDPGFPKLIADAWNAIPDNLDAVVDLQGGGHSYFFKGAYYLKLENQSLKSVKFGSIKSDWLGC
# [14] = target: 26S proteasome non-ATPase regulatory subunit 14 (Homo sapiens, UniProt O00487); assay: inhibition of proteasome subunit RPN11 – biochemical, fluorescence polarization, uHTS hits, confirmation (AID 602368); format: functional
# Sequence of 26S proteasome non-ATPase regulatory subunit 14 (O00487 whole entry): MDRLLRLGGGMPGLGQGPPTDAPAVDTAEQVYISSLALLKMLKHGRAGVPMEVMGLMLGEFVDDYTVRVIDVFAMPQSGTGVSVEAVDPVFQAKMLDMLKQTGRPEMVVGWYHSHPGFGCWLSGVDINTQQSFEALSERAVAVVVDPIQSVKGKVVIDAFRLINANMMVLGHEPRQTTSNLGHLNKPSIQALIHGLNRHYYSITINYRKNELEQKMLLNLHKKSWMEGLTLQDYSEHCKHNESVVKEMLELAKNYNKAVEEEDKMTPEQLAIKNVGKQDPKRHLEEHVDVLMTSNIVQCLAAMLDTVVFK
# [15] = Luminescence Cell-Based Dose Retest to Confirm Inhibitors of Cancer Stem Cells. [Related pubchem assays (depositor defined):AID2717, AID2721]; format: functional; conditions: Homo sapiens
# [16] = target: Cytochrome P450 3A4 (Homo sapiens, UniProt P08684);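 also: CYP3A4 tested as one member of a cytochrome P450 panel screen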
# Sequence of Cytochrome P450 3A4 (P08684 whole entry): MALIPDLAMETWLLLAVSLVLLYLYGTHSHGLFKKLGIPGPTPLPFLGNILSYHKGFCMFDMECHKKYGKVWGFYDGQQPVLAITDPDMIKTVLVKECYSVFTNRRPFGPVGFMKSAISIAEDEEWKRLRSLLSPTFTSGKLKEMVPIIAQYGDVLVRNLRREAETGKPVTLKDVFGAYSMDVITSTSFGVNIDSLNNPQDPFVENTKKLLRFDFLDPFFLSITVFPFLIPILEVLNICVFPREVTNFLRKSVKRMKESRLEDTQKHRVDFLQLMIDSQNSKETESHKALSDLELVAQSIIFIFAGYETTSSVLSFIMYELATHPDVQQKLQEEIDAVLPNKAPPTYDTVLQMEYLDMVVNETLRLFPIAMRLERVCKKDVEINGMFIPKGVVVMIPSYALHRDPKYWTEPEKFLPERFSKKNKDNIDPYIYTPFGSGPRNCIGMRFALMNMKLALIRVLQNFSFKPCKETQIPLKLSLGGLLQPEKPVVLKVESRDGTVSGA
# [17] = viability loss of HMLE_sh_eGFP cells – cell-based, luminescence, counter-screen for HMLE_sh_ECad selective toxicity project, dose response (AID 463074); format: functional, Homo sapiens;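 also: HMLE human mammary epithelial cells expressing control shRNA against eGFP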
# [18] = tested on: MDCK; assay: antiviral activity against H1N1 influenza, dose response, cell-based, strain KY180 (AID 540254); format: functional; conditions: Canis lupus familiaris
# [19] = tested on: MDCK; assay: MDCK cell cytotoxicity, dose response, cytotoxicity control (AID 540296); format: functional; conditions: Canis lupus familiaris
# Sequence of Luciferin 4-monooxygenase (P08659 whole entry): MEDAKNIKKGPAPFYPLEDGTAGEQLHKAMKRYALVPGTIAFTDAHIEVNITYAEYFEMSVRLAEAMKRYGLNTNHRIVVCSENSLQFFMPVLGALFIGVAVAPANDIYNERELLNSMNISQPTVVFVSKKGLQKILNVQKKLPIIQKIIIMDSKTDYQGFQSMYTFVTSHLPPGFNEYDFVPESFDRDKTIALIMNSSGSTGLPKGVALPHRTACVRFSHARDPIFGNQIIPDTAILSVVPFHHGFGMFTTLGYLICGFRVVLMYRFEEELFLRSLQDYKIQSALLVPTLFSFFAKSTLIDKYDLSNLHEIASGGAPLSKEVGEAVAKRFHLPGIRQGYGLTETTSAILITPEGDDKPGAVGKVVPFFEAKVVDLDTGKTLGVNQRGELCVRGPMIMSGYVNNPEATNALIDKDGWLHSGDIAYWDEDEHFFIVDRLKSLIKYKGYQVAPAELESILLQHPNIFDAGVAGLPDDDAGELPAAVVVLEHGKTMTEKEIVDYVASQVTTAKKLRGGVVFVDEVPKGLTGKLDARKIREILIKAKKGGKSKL
smiles,measurement,setting,value
CCC(=O)Nc1cccc(NC(=O)c2ccccc2Br)c1,EC50,[1],> 112 µM (not active)
same,AC50,[2],< 3.12 µM (active)
same,AC50,[3],21.2 µM (active)
same,EC50,[4],4.32 µM (active)
same,EC50,[5],< 1 µM (active)
same,EC50,[6],14 µM (active)
Cc1cccc(N=Nc2ccc(O)c3ncccc23)c1,AC50,[7],1.78 µM (active)
same,AC50,[8],3.91 µM (active)
same,EC50,[9],4.58 µM (active)
same,IC50,[10],> 80 µM (inactive)
Cc1c(NC(=O)c2cc(-n3cnnc3)ccc2Cl)cccc1-c1nc2ccccc2s1,IC50,[11],18.3 µM (active)
O=C1c2cccc3cccc(c23)C(=O)N1c1ccc2ncccc2c1,IC50,[12],82.1 µM (active)
same,IC50,[13],23 µM (active)
same,IC50,[14],23.9 µM (active)
O=C(COc1ccccc1Cl)Nc1cc(Cl)ccc1Oc1ccccc1,AC50,[15],3.01 µM (active)
same,AC50,[16],15.8 µM (inconclusive)
same,AC50,[17],120 µM (active)
CC(c1ccccn1)N(CCN(C)C)C(S)=Nc1cccc(F)c1 (centres undefined),IC50,[18],64.7 µM (active)
same,CC50,[19],> 40 µM (active)

# Reference: ChEMBL document CHEMBL1201862, “PubChem BioAssay data set” (2004)
